Measurements reported in patent US20080306116A1, “ARYLOXAZOLE, ARYLOXADIAZOLE AND BENZIMIDAZOLE DERIVATIVES” (priority 2007, published 2008).

biological target: T1, human subtype 5 somatostatin receptor (Homo sapiens, UniProt P35346); assay: radioligand replacement (binding) assay, membranes of CHO cells expressing human SSTR5, 125I-labeled 11-Tyr somatostatin-14 tracer; conditions: CHO cell membranes, 0.05 nM 125I-labeled 11-Tyr somatostatin-14, 1 h at rt; Ki calculated from IC50 by Cheng-Prussoff equation; read-out: hSSTR5 Ki
T1 construct: host or cells: CHO cell line, stably transfected; membranes used
Method: A CHO cell line stably transfected with a plasmid encoding the human subtype 5 somatostatin receptor (GenBank accession number D16827) was obtained from Euroscreen. Cells were cultured and used for binding and functional assays.
Membranes of these cells were prepared by sonication in the presence of protease inhibitors and subsequent fractionating centrifugation. The protein concentration in the membrane preparation was determined using a commercial kit (BCA kit, Pierce, USA). Membranes were stored at −80° C. until use. After thawing membranes were diluted in assay buffer (50 mM Tris-HCl at pH 7.4, 5 mM MgCl2 and 0.20% BSA) and subjected to dounce homogenization.
For binding studies, 0.1 mL membrane suspension, corresponding to approximately 6×10^−15 mol receptor, was incubated for 1 h at rt with 0.05 nM ^125I-labeled tracer (11-Tyr somatostatin-14, Perkin-Elmer) and either test compound in varying concentrations or, for the determination of non-specific binding, 0.001 mM non-labeled somatostatin-14. The incubation was stopped by filtration through GF/B glassfiber filters and washing with ice-cold wash buffer (50 mM Tris-HCl at pH 7.4). The bound radioactivity was measured after application of a scintillation cocktail (Microscint 40) and expressed as disintegrations per minute (dpm).
The receptor concentration was determined in a prior saturation experiment where a fixed, arbitrary amount of membranes was incubated with a concentration range of radio-labeled tracer. This allows estimating the total number of specific binding sites per amount of protein (i.e., Bmax), typically between 1 and 5 pmol/mg.
The concentration of the test compound required to result in half maximal inhibition of binding of the radio-labeled tracer (IC50) was estimated from a concentration-versus-dpm graph. The binding affinity (Ki) was calculated from the IC50 by applying the Cheng-Prussoff equation for single binding sites.

T1 sequence (P35346 whole entry): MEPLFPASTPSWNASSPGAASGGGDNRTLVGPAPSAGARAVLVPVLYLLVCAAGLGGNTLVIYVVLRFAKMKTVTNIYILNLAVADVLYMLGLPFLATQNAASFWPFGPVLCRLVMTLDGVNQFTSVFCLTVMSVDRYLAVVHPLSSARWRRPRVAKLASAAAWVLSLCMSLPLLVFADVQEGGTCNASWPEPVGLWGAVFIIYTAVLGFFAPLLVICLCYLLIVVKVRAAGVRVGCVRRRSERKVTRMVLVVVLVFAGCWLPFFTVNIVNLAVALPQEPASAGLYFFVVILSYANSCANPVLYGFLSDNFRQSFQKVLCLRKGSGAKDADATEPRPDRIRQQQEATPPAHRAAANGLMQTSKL

**Q.** Which Ki does the source give for `CCOc1cc(CN2CCC(Nc3nc(-c4cccc(OC)c4)co3)CC2)cc(OCC)c1-c1ccc(F)cc1` [Example 15, [1-(2,6-Diethoxy-4′-fluoro-biphenyl-4-ylmethyl)-piperidin-4-yl]-[4-(3-methoxy-phenyl)-oxazol-2-yl]-amine] here?
**A.** Its Ki is 48 nM.

**Q.** Which Ki does the source give for `CCOc1cc(CN2CCC(Nc3nc(-c4ccccc4)no3)CC2)cc(OCC)c1N` [Example 9, [1-(4-Amino-3,5-diethoxy-benzyl)-piperidin-4-yl]-(3-phenyl-[1,2,4]oxadiazol-5-yl)-amine] here?
**A.** Its Ki is 41 nM.

**Q.** `CCOc1cc(CN2CCC(Nc3ncc(-c4ccccc4)o3)CC2)cc(OCC)c1Cl` [Example 37, [1-(4-Chloro-3,5-diethoxy-benzyl)-piperidin-4-yl]-(5-phenyl-oxazol-2-yl)amine] was tested. Which Ki did it give?
**A.** The Ki was 12 nM.

**Q.** `CCOc1cc(CN2CCC(Nc3nc(-c4ccc(C(F)(F)F)cc4)co3)CC2)cc(OCC)c1-c1ccc(F)cc1` [Example 49] was tested. Which Ki did it give?
**A.** Its Ki is 73 nM.

**Q.** Which Ki does the source give for `CCOc1cc(CN2CCC(Nc3nc(-c4ccccc4)no3)CC2)ccc1Cl` [Example 2, [1-(4-Chloro-3-ethoxy-benzyl)-piperidin-4-yl]-(3-phenyl-[1,2,4]oxadiazol-5-yl)-amine] here?
**A.** Its Ki is 91 nM.

**Q.** For `CCOc1cc(CN2CCC(Nc3nc(-c4ccccc4)no3)CC2)cc2c1OC(C)(C)C=C2` [Example 7, [1-(8-Ethoxy-2,2-dimethyl-2H-chromen-6-ylmethyl)-piperidin-4-yl]-(3-phenyl-[1,2,4]oxadiazol-5-yl)-amine], which Ki is on record?
**A.** Its Ki is 449 nM.

**Q.** `CCOc1cc(CN2CCC(Nc3nc4ccccc4n3C)CC2)ccc1Cl` [Example 11, [1-(4-Chloro-3-ethoxy-benzyl)-piperidin-4-yl]-(1-methyl-1H-benzoimidazol-2-yl)-amine] was tested. Which Ki did it give?
**A.** The Ki was 42 nM.

**Q.** With `CCOc1cc(CN2CCC(Nc3ncc(-c4ccccc4)o3)CC2)cc(OCC)c1C` [Example 46, [1-(3,5-Diethoxy-4-methyl-benzyl)-piperidin-4-yl]-(5-phenyl-oxazol-2-yl)-amine] as the molecule, how does the Ki read?
**A.** The Ki was 12 nM.

**Q.** Which Ki does the source give for `CCOc1cc(CN2CCC(Nc3nc(-c4ccccc4)no3)CC2)ccc1C` [Example 1, [1-(3-Ethoxy-4-methyl-benzyl)-piperidin-4-yl]-(3-phenyl-[1,2,4]oxadiazol-5-yl)-amine] here?
**A.** Its Ki is 74 nM.

**Q.** Which Ki does the source give for `CCOc1cc(CN2CCC(Nc3nc(-c4ccccc4)co3)CC2)cc(OCC)c1-c1ccc(F)cc1` [Example 24] here?
**A.** Its Ki is 27 nM.

**Q.** Which Ki does the source give for `CCOc1cc(CN2CCC(Nc3ncc(-c4ccccc4)o3)CC2)cc(OCC)c1-c1ccc(F)cc1` [Example 33, [1-(2,6-Diethoxy-4′-fluoro-biphenyl-4-ylmethyl)-piperidin-4-yl]-(5-phenyl-oxazol-2-yl)-amine] here?
**A.** Its Ki is 28 nM.

**Q.** `CCOc1cc(CN2CCC(Nc3nc(-c4ccc(F)cc4)co3)CC2)cc(OCC)c1F` [Example 19, [1-(3,5-Diethoxy-fluoro-benzyl)-piperidin-4yl]-[4-(4-fluoro-phenyl)-oxazol-2-yl]-amine] was tested. Which Ki did it give?
**A.** The Ki was 26 nM.

**Q.** `CCOc1cc(CN2CCC(Nc3ncc(-c4ccc(OC)cc4)o3)CC2)cc(OCC)c1-c1ccc(F)cc1` [Example 40, [1-(2,6-Diethoxy-4′-fluoro-bipehenyl-4-ylmethyl)-piperidin-4-yl]-[5-(4-methoxy-phenyl)-oxazol-2-yl]-amine] was tested. Which Ki did it give?
**A.** Its Ki is 46 nM.

**Q.** How did the Ki turn out when `CC(C)Oc1cc(CN2CCC(Nc3nc4ccccc4n3C)CC2)cc(OC(C)C)c1` [Example 13, [1-(3,5-Diisopropoxy-benzyl)-piperidin-4-yl]-(1-methyl-1H-benzoimidazol-2-yl)-amine] was run?
**A.** Its Ki is 35 nM.

**Q.** How did the Ki turn out when `CCOc1cc(CN2CCC(Nc3nc(-c4ccc(Cl)cc4)co3)CC2)cc(OCC)c1Cl` [Example 27, [1-(4-Chloro-3,5-diethoxy-benzyl)-piperidin-4-yl]-[4(4-chloro-phenyl)oxazol-2-yl]-amine] was run?
**A.** Its Ki is 8 nM.

**Q.** For `COc1ccc(CN2CCC(Nc3nc(-c4ccccc4)no3)CC2)cc1OCC(C)C` [Example 5, [1-(3-Isobutoxy-4-methoxy-benzyl)piperidin-4-yl]-(3-phenyl-[1,2,4]oxadiazol-5-yl)-amine], which Ki is on record?
**A.** Its Ki is 116 nM.
